Values joined by “and” are separate entries in the source; they are usually repeats but may differ in a detail not shown here. Equal values may be shown once.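 Cells were grown in 96-well plates and exposed to each compound for 48 hours at five concentrations; endpoints were interpolated linearly between bracketing concentrations, or set to the highest concentration if not reached. At the GI50, growth is halved.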 Active and inactive are the calls of the source. No stated cut-off is given here; in the data, active = GI50 up to about 1.1 µM and inactive = higher.
What was measured:
Experiment in all cases: NCI tumour cell line growth inhibition, 48 h
[1] = tested on: BT-549
[2] = tested on: Hs-578T
[3] = tested on: MDA-N
[4] = tested on: T47D
[5] = tested on: DMS-273
[6] = tested on: SNB-78
[7] = tested on: XF498
[8] = tested on: HOP-18

SMILES	GI50 [1]	GI50 [2]	GI50 [3]	GI50 [4]	GI50 [5]	GI50 [6]	GI50 [7]	GI50 [8]
Cc1nn(C(=O)c2ccncc2)c2c1C(c1ccccc1O)SC(=N)N2 (stereo not given)	> 10 µM (inactive)	> 10 µM (inactive)	> 10 µM (inactive)	> 10 µM (inactive)				
COc1ccc(/C=C2\N/C(=N/N)N=C2Cl)cc1		> 100 µM (inactive)	> 100 µM (inactive)	> 100 µM (inactive)				
Oc1nnc2c(-c3ccccc3)n[nH]c2n1					> 100 µM (inactive)	> 100 µM (inactive)		
CCCCCCCCCCCCCCCCOCC(Cl)CP(=O)(O)OP(=O)(O)OCC1OC(n2cnc3c(N)ncnc32)C(O)C1O (stereo not given)	> 100 µM (inactive)	> 100 µM (inactive)	> 100 µM (inactive)	> 100 µM (inactive)				
COc1ccc(CC(C#N)c2cc(OC)c(OC)c(OC)c2)cc1 (stereo not given)	11.9 µM (inactive)	0.0286 µM (active)	< 0.01 µM (active)		0.0303 µM (active)	0.227 µM (active)	0.356 µM (active)	
COc1ccc(C(=O)/C=C/c2ccc(OCCSCCCCCCCCCCSCCOc3ccc(/C=C/C(=O)c4ccc(OC)c(OC)c4)cc3)cc2)cc1OC	> 100 µM (inactive)	> 100 µM (inactive)	> 100 µM (inactive)	> 100 µM (inactive)				
CN(/N=C/c1ccccc1C(=O)O)C1=NCCCCN1	> 100 µM (inactive)	> 100 µM (inactive)	> 100 µM (inactive)	> 100 µM (inactive)				
CC(C)c1cccc(C(C)C)c1NC(=O)CCC(=O)NN					61.5 µM (inactive)	> 100 µM (inactive)		> 100 µM (inactive)
CC(=O)OC12CC[N+]3(C)CCCCC3C1=Nc1ccccc12 (stereo not given)	> 100 µM (inactive)	> 100 µM (inactive)	> 100 µM (inactive)	> 100 µM (inactive)				
CCC(CCCCC1CC[C@H]2CC(=O)C[C@@H]12)OC (stereo not given in full)	> 100 µM (inactive)			> 100 µM (inactive)				
CN(C)CCNCCN	> 100 µM (inactive)	> 100 µM (inactive)	> 100 µM (inactive)	> 100 µM (inactive)				
COc1cc2c(cc1O)C1Cc3ccc(OC)c(O)c3C(C2)N1C (stereo not given)	> 100 µM (inactive)	42.8 µM (inactive)	> 100 µM (inactive)	> 100 µM (inactive)				
Oc1cccc(C2SCc3nc4ccccc4n32)c1 (stereo not given)					47.1 µM (inactive)	> 100 µM (inactive)		0.42 µM (active)
COc1cccc2c1-c1c(OC)cccc1SS2	27.6 µM (inactive)	26.1 µM (inactive)	2.67 µM (inactive)					
O=C(O)c1ccc(Nc2nc3nn(Cc4ccccc4)cc3c(=O)s2)cc1					> 100 µM (inactive)	> 100 µM (inactive)		74.8 µM (inactive)
CC(C)=CCC/C(C)=C/Cc1c2c(c3oc(-c4ccc(O)c(O)c4)c(O)c(=O)c3c1O)C=CC(C)(C)O2	7.66 µM (inactive)	9.46 µM (inactive)	5.02 µM (inactive)	1.65 µM (inactive)				
Cc1ccc(-c2cs/c(=N\c3ccccc3)n2NC(=O)c2ccncc2)cc1	30.8 µM (inactive)	57.5 µM (inactive)	25.4 µM (inactive)	24.5 µM (inactive)				
NCCN1CCCCCc2ccccc21		> 10 µM (inactive)		> 10 µM (inactive)				
C/C=C/[P+](c1ccccc1)(c1ccccc1)c1ccccc1	0.277 µM (active)	0.337 µM (active)	0.35 µM (active)	0.163 µM (active)				

SMILES	GI50 [1]	GI50 [2]	GI50 [3]	GI50 [4]	GI50 [5]	GI50 [6]	GI50 [7]	GI50 [8]
COc1ccc(/C=N/N=C(\N)NO)c(OC)c1OC		> 100 µM (inactive)	66.5 µM (inactive)	28.1 µM (inactive)				
O=C(CCC(=O)Nc1cccc(Cl)c1)CC(=O)c1ccc(F)cc1					> 100 µM (inactive)	> 100 µM (inactive)	> 100 µM (inactive)	
C=CCOc1ccc(C(=N/NC(=O)c2ccccc2)/N=N/c2ccc(C)cc2)cc1OC	18.3 µM (inactive)	23.4 µM (inactive)	20.7 µM (inactive)	14.2 µM (inactive)				
Cc1nc2cc(/N=N/c3c(O)ccc4ccccc34)ccc2[nH]1	27.2 µM (inactive)	28.2 µM (inactive)	17 µM (inactive)	21 µM (inactive)	19.4 µM (inactive)	83 µM (inactive)		
CC(=O)O[C@]12CCCCCC1C1(O)C(O)CCCCC12 (stereo not given in full)					> 100 µM (inactive)	> 100 µM (inactive)	> 100 µM (inactive)	
CC1CC/C(=C\c2ccc(F)cc2)C2=C1C(c1ccc(F)cc1)NC(=S)N2 (stereo not given)	35.1 µM (inactive)	> 100 µM (inactive)	67.8 µM (inactive)	12.9 µM (inactive)				
O=C(Nc1ccc(Cl)cc1)c1cc(S(=O)(=O)Nc2n[nH]c(=O)[nH]2)c(SSc2cc(Cl)c(C(=O)Nc3ccc(Cl)cc3)cc2S(=O)(=O)Nc2n[nH]c(=O)[nH]2)cc1Cl	> 100 µM (inactive)	> 100 µM (inactive)	> 100 µM (inactive)					
OCc1cc2c([nH]c3ccccc32)c(C(O)CO)n1 (stereo not given)	> 100 µM (inactive)	> 100 µM (inactive)	> 100 µM (inactive)	> 100 µM (inactive)				
O=C(/C=C1\Nc2ccc([N+](=O)[O-])cc2N=C1NC12CC3CC(CC(C3)C1)C2)c1ccccc1		3.76 µM (inactive)	> 10 µM (inactive)	> 10 µM (inactive)				
CC(=O)NC(Cc1ccc(OP(=O)(OCc2ccc([N+](=O)[O-])o2)N(C)CCCCCl)cc1)C(=O)NC(C)c1ccc(OCC2CCCCC2)c(C(N)=O)c1 (stereo not given)		2.14 µM (inactive)	2.24 µM (inactive)	2.76 µM (inactive)				
C=C1C(=O)O[C@@H]2/C=C(/C)[C@@H](OC(C)=O)C[C@@H](O)/C(C)=C\[C@@H](OC(=O)[C@]3(C)O[C@@H]3C)[C@@H]12	5.83 µM (inactive)	42.6 µM (inactive)	15.7 µM (inactive)	11.1 µM (inactive)				
CC(=O)O[C@H]1[C@@H](OC2CCCC2(c2ccccc2)c2ccccc2)O[N+]([O-])=C[C@@H]1c1ccccc1 (stereo not given in full)	4.24 µM (inactive)	6.53 µM (inactive)	4.94 µM (inactive)	7.52 µM (inactive)				
Cc1cc2nc(C=C(C(F)(F)F)C(F)(F)F)sc2cc1C	0.855 µM (active)	1.87 µM (inactive)	1.44 µM (inactive)	0.142 µM (active)				
Cn1c(=O)c2c(ncn2Cc2ccc(O)c([N+](=O)[O-])c2)n(C)c1=O	> 100 µM (inactive)	> 100 µM (inactive)	> 100 µM (inactive)	> 100 µM (inactive)				
O=CNCCCN1CCN(CCCNC=O)CC1	> 100 µM (inactive)		> 100 µM (inactive)	> 100 µM (inactive)				
CSC(=S)Nc1cc(C)ccn1		> 100 µM (inactive)	> 100 µM (inactive)	58.9 µM (inactive)				
O=C(OCc1ccccc1)c1ccccc1-c1c2ccc(=O)cc-2oc2cc(OCc3ccccc3)ccc12					7.03 µM (inactive)	22.6 µM (inactive)	15.7 µM (inactive)	
CCCCOC(=O)/C(CC(=O)C=C(C)C)=N\NS(=O)(=O)c1ccc(C)cc1						> 100 µM (inactive)	> 100 µM (inactive)	> 100 µM (inactive)
COC(=O)C(=O)C(C(=O)C(=O)Nc1cccc(OC)c1)c1nc2ccc(Cl)cc2nc1O (stereo not given)	> 100 µM (inactive)	72.4 µM (inactive)	> 100 µM (inactive)	> 100 µM (inactive)				

SMILES	GI50 [1]	GI50 [2]	GI50 [3]	GI50 [4]	GI50 [5]	GI50 [6]	GI50 [7]	GI50 [8]
N#CC1=C(N)N2C(=O)/C(=C/c3ccccc3O)N=C2S1		31.3 µM (inactive)	86.3 µM (inactive)	> 100 µM (inactive)				
CN(C)Cc1cc(C(=O)/C=C/c2ccc(Cl)cc2Cl)cc(CN(C)C)c1O		3.82 µM (inactive)	1.88 µM (inactive)	5.01 µM (inactive)				
CCOc1ccccc1-c1nc2c(s1)C(=O)c1ccccc1C2=O		19 µM (inactive)	2.72 µM (inactive)	16.9 µM (inactive)				
C[C@@H]1C[C@H](O)[C@]2(O)O[C@@H]3C[C@@]4(C=O)[C@@H](CC[C@@H]5[C@@H]4CC[C@]4(C)[C@@H](C6=CC(=O)OC6)CC[C@]54O)C[C@H]3O[C@@H]2O1 [CALOTROPIN]	0.0231 µM (active)	0.0263 µM (active)	0.0692 µM (active)	0.0303 µM (active)				
C#CCOC(=O)C(N)CS (stereo not given)	> 100 µM (inactive)	> 100 µM (inactive)	> 100 µM (inactive)	> 100 µM (inactive)				
NC(=O)c1ccc[n+](C2=C([N-]S(=O)(=O)c3ccccc3)C(=O)c3ccccc3C2=O)c1	14.8 µM (inactive)	22 µM (inactive)	16.7 µM (inactive)	22.6 µM (inactive)				
CCSC1=N/C(=C/c2ccccc2O)C(=O)N1	> 100 µM (inactive)	33.7 µM (inactive)	> 100 µM (inactive)	60.7 µM (inactive)				
O=[N+]([O-])C(=C(NCc1ccccc1)NCc1ccccc1)C(Cl)=C(Cl)Cl	34.4 µM (inactive)	49.2 µM (inactive)	25.2 µM (inactive)	27.3 µM (inactive)				
O=C1/C(=C/c2ccco2)NC(=S)N1CN1CCCCC1		83.6 µM (inactive)	> 100 µM (inactive)					
CCC1=C(CC)C1(C#N)[N+](=O)[O-]					> 100 µM (inactive)	> 100 µM (inactive)		
O=C(NN=C1CCN(Cc2ccccc2)CC1)C(O)(c1ccccc1)c1ccccc1		> 100 µM (inactive)		> 100 µM (inactive)				
CSc1nc2c(c(=O)[nH]1)N=C(c1ccccc1)CC(c1ccccc1)N2 (stereo not given)	28.5 µM (inactive)		20.7 µM (inactive)					
Cc1ccc2c(O)cc(-c3ccc(Cl)cc3)nc2n1	2.38 µM (inactive)	11.9 µM (inactive)	1.56 µM (inactive)	0.764 µM (active)				
O=c1[nH]nc(Cc2ccccc2)n1O	> 100 µM (inactive)	> 100 µM (inactive)	> 100 µM (inactive)	> 100 µM (inactive)				
CCOc1ccc2nc3cc(/N=N/c4ccc(N)nc4N)ccc3c(N)c2c1	13.4 µM (inactive)	3.13 µM (inactive)	2.24 µM (inactive)	1.67 µM (inactive)				
COC(=O)[C@@H]1CC(C(C[N+](=O)[O-])c2ccc(O[Si](C)(C)C(C)(C)C)cc2)C(=O)N1C(=O)OC(C)(C)C (stereo not given in full)		> 100 µM (inactive)	> 100 µM (inactive)	22.1 µM (inactive) and 32.5 µM (inactive)				
Cc1cc(C)c(O)c(Cc2cccc(Cc3cc(C)cc(C)c3O)c2O)c1	> 100 µM (inactive)	> 100 µM (inactive)	> 100 µM (inactive)	> 100 µM (inactive)				
CC(C)C1=CCC2C(=C1)CCC1C(C)(C(=O)O)CCCC21C (stereo not given)	> 100 µM (inactive)	> 100 µM (inactive)	> 100 µM (inactive)	> 100 µM (inactive)				
